Measurements published in publication PMC7524867, “Identification of Novel Inhibitors of a Plant Group A Protein Phosphatase Type 2C Using a Combined In Silico and Biochemical Approach” (Frontiers in Plant Science, 2020).

Columns and labels:
Assay type in all cases: biochemical
ABI1 [1] = target: T1, ABI1 (Arabidopsis thaliana, UniProt P49597); experiment: Ser/Thr phosphatase assay, single dose […]; set-up: His-ABI1
T1 sequence (P49597 1-434): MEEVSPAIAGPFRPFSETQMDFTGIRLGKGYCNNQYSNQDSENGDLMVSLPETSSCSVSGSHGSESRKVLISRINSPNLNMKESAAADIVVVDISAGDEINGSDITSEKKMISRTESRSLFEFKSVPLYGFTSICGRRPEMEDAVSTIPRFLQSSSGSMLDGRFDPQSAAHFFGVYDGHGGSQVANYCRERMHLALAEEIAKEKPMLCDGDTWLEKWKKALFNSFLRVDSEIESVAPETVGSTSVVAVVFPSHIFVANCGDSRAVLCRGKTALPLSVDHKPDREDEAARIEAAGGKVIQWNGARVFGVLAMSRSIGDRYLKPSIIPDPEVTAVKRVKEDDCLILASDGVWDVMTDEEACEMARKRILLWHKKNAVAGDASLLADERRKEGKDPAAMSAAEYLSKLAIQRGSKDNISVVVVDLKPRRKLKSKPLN

ABI2 = target: T2, ABI2 (Arabidopsis thaliana, UniProt O04719); experiment: Ser/Thr phosphatase assay at […] compound; weaker than on ABI1
T2 construct: recombinant His- or GST-tagged ABI2
T2 sequence (O04719 1-423): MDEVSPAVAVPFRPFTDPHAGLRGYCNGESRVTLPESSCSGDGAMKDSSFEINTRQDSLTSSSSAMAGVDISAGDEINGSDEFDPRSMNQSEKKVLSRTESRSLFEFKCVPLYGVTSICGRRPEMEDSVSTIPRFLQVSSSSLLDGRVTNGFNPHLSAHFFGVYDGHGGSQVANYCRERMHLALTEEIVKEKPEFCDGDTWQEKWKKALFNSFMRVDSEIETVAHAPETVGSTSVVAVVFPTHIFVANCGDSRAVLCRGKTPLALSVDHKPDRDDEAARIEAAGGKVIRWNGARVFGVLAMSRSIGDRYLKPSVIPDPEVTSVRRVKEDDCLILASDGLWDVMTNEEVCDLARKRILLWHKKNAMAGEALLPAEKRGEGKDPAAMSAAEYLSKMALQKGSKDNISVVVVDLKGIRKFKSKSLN

ABI1 [2] = target: T1, ABI1; experiment: Ser/Thr phosphatase assay (Promega) with phosphopeptide substrate, six-concentration IC50; set-up: recombinant His- or GST-tagged ABI1
ABI1 [3] = target: T1, ABI1; experiment: Ser/Thr phosphatase assay, single dose […]; set-up: recombinant His- or GST-tagged ABI1

Compound: COc1cccc(-n2cc(C(=O)Nc3cc(C)ccc3OC)c3ccccc3c2=O)c1 [ZINC09438755]
- Ser/Thr phosphatase assay, single dose 100 μM (ABI1 [1]): Only two molecules ZINC33009768 and ZINC09438755 were found to have significant inhibitory activity

Compound: COC(=O)c1ccccc1NC(=O)Nc1cc(NC(=O)c2ccc(F)cc2)ccc1N1CCCC1 [ZINC33009768]
- Ser/Thr phosphatase assay, single dose 100 μM (ABI1 [1]): Only two molecules ZINC33009768 and ZINC09438755 were found to have significant inhibitory activity

Compound: NCCOc1cc(C(=O)Nc2cc(OCCN)c3ccccc3n2)nc(C(=O)Nc2cc(OCCN)c3ccccc3n2)c1 [ZINC59151964, 4-(2-aminoethoxy)-N2,N6-bis[4-(2-aminoethoxy)-2-quinolinyl]-2,6-pyridinedicarboxamide]
- Ser/Thr phosphatase assay at 100 μM compound; weaker than on ABI1 (ABI2): ZINC59151964 is more efficient against ABI1 than ABI2
- IC50 (ABI1 [2]): 54 ± 8 µM

Compound: ZINC04545840
- % inhibition at 100 μM (ABI1 [3]): 42.6
